Laboratory results from the supplement of paper PMC10307832.

Experiments:
Test in all cases: relative viability (nuclei count vs DMSO), 5 days (fraction); higher = more cells survive
Fedratinib + Luminespib = compound: Cc1cnc(Nc2ccc(OCCN3CCCC3)cc2)nc1Nc1cccc(S(=O)(=O)NC(C)(C)C)c1 [Fedratinib] + CCNC(=O)c1noc(-c2cc(C(C)C)c(O)cc2O)c1-c1ccc(CN2CCOCC2)cc1 [Luminespib] (partner 0.01 µM)
In short: (§1)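 Relative viability equals treated-well nuclei counts divided by vehicle-well nuclei counts. Counts came from 4× images of lung cancer cell lines grown in 1536-well plates for 5 days after pin-tool dosing on the day after seeding. Dosing used one drug alone or a fixed anchor-drug dose plus five library-drug doses (not always all listed) in √10 steps, and values are medians of duplicate plates.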

GW-2580 + Palbociclib = compound: COC1=CC=C(C=C1)COC2=C(C=C(C=C2)CC3=CN=C(N=C3N)N)OC [GW-2580] + CC(=O)c1c(C)c2cnc(Nc3ccc(N4CCNCC4)cn3)nc2n(C2CCCC2)c1=O [Palbociclib] (partner 0.5 µM)
In short: as §1

Fedratinib + Crizotinib = compound: Cc1cnc(Nc2ccc(OCCN3CCCC3)cc2)nc1Nc1cccc(S(=O)(=O)NC(C)(C)C)c1 [Fedratinib] + C[C@@H](Oc1cc(-c2cnn(C3CCNCC3)c2)cnc1N)c1c(Cl)ccc(F)c1Cl [Crizotinib] (partner 1 µM)
In short: as §1

Fedratinib + Linsitinib = compound: Cc1cnc(Nc2ccc(OCCN3CCCC3)cc2)nc1Nc1cccc(S(=O)(=O)NC(C)(C)C)c1 [Fedratinib] + C[C@]1(O)C[C@@H](c2nc(-c3ccc4ccc(-c5ccccc5)nc4c3)c3c(N)nccn32)C1 [Linsitinib] (partner 1 µM)
In short: as §1

GW-2580 + Navitoclax = compound: COC1=CC=C(C=C1)COC2=C(C=C(C=C2)CC3=CN=C(N=C3N)N)OC [GW-2580] + CC1(C)CCC(c2ccc(Cl)cc2)=C(CN2CCN(c3ccc(C(=O)NS(=O)(=O)c4ccc(N[C@H](CCN5CCOCC5)CSc5ccccc5)c(S(=O)(=O)C(F)(F)F)c4)cc3)CC2)C1 [Navitoclax] (partner 0.5 µM)
In short: as §1

Row | Cell Line | relative viability (Fedratinib + Luminespib; first compound 0.1 µM) | relative viability (Fedratinib + Luminespib; first compound 0.3162 µM) | relative viability (Fedratinib + Luminespib; first compound 1 µM) | relative viability (GW-2580 + Palbociclib; first compound 0.08 µM) | relative viability (GW-2580 + Palbociclib; first compound 0.8 µM) | relative viability (GW-2580 + Palbociclib; first compound 2.53 µM) | relative viability (GW-2580 + Palbociclib; first compound 8 µM) | relative viability (Fedratinib + Crizotinib; first compound 0.1 µM) | relative viability (Fedratinib + Crizotinib; first compound 0.3162 µM) | relative viability (Fedratinib + Crizotinib; first compound 1 µM) | relative viability (Fedratinib + Linsitinib; first compound 0.1 µM) | relative viability (Fedratinib + Linsitinib; first compound 0.3162 µM) | relative viability (Fedratinib + Linsitinib; first compound 1 µM) | relative viability (GW-2580 + Navitoclax; first compound 0.08 µM) | relative viability (GW-2580 + Navitoclax; first compound 0.8 µM) | relative viability (GW-2580 + Navitoclax; first compound 2.53 µM) | relative viability (GW-2580 + Navitoclax; first compound 8 µM)
1 | 201T | 1 | 1.06 | 1.02 | 0.388 | 0.4 | 0.375 | 0.351 | 1.01 | 1.04 | 0.99 | 1.03 | 1.02 | 0.974 | 1.24 | 1.25 | 1.23 | 1.2
2 | A549 | – | – | – | – | – | – | – | 0.638 | 0.609 | 0.687 | 0.56 | 0.539 | 0.601 | 1.38 | 1.25 | 1.12 | 0.918
3 | A-427 | 0.901 | 0.884 | 0.921 | 0.521 | 0.534 | 0.52 | 0.529 | 0.802 | 0.755 | 0.686 | 1.13 | 1.05 | 1.11 | 1.02 | 1.1 | 0.838 | 0.856
4 | ABC-1 | 0.415 | 0.655 | 0.607 | 0.74 | 0.768 | 0.503 | 0.696 | 0.566 | 1.1 | 0.769 | 0.625 | 0.859 | 0.713 | – | – | – | –
5 | BEN | 0.312 | 0.248 | 0.263 | 0.491 | 0.507 | 0.471 | 0.491 | 0.716 | 0.91 | 0.784 | 0.779 | 0.914 | 0.852 | 0.0663 | 0.486 | 0.0634 | 0.0526
6 | CAL-12T | 0.175 | 0.617 | 0.361 | 0.639 | 0.416 | 0.517 | 0.413 | 0.262 | 0.588 | 0.322 | 0.739 | 0.819 | 0.853 | 1.27 | – | 1.22 | 1.34
7 | COR-L23 | 0.816 | 0.671 | 0.602 | 0.264 | 0.328 | 0.302 | 0.288 | 0.55 | 0.526 | 0.486 | 1.04 | 0.906 | 0.759 | 1.32 | 1.17 | 1.14 | 1.11
8 | COR-L 105 | 0.753 | 0.743 | 0.78 | 0.434 | 0.398 | 0.413 | 0.39 | 0.539 | 0.686 | 0.391 | 0.951 | 0.817 | 0.827 | 0.813 | 0.814 | 0.72 | 0.751
9 | Calu-6 | – | – | – | – | – | – | – | 0.753 | 0.701 | 0.677 | 1.02 | 0.953 | 0.917 | 0.932 | 0.868 | 0.782 | 0.877
10 | ChaGo-K-1 | 0.61 | 0.548 | 0.561 | 0.927 | 0.943 | 0.88 | 0.895 | 0.851 | 1.06 | 0.975 | – | – | – | 1.04 | 1.34 | 0.926 | 1.01
11 | EBC-1 | – | – | – | – | – | – | – | 0.184 | 0.213 | 0.185 | 0.764 | 0.937 | 0.814 | 0.418 | 0.37 | 0.369 | 0.37
12 | EKVX | 0.888 | 0.866 | 0.934 | 0.341 | 0.392 | 0.675 | 0.327 | 1.05 | 0.889 | 0.958 | 1.09 | 0.967 | 0.982 | 0.977 | 1.03 | 0.732 | 0.925
13 | EMC-BAC-2 | 1.27 | 1.12 | 1.18 | 0.536 | 0.545 | – | 0.493 | 0.615 | 0.73 | 0.7 | 0.802 | 0.832 | 0.796 | 1.18 | 1.39 | 1.07 | 1.2
14 | EPLC-272H | 0.208 | 0.167 | 0.205 | 0.317 | 0.337 | – | 0.313 | 1 | 0.87 | 0.757 | 1.45 | 0.983 | 0.993 | 1.18 | 1.08 | 1.11 | 1.11
15 | H3255 | 0.913 | 0.932 | 0.59 | 0.308 | 0.3 | 0.317 | 0.279 | 0.873 | 0.805 | 0.723 | 1.04 | 1.03 | 0.926 | 0.5 | 0.633 | 0.4 | 0.452
16 | HARA | 0.103 | 0.766 | 0.539 | 0.238 | 0.24 | 0.265 | 0.291 | 1.16 | 1.04 | 1.05 | 1.09 | 0.975 | 0.979 | 1.15 | 1.18 | 1.28 | 0.896
17 | HCC-15 | 0.114 | 0.247 | 0.381 | 0.82 | 0.814 | 0.706 | 0.56 | 0.839 | 0.762 | 0.71 | 0.755 | 0.719 | 0.734 | 0.751 | 0.79 | 0.656 | 0.712
18 | HCC-44 | 1.01 | 0.974 | 0.972 | 0.98 | 1.02 | 0.961 | 0.967 | 0.797 | 0.756 | 0.85 | 0.621 | 0.652 | 0.667 | 1.09 | 1.03 | 0.97 | 0.897
19 | HCC-78 | – | – | – | 0.459 | 0.522 | – | 0.5 | 0.346 | – | 0.305 | 0.427 | – | 0.49 | 0.879 | 1.07 | 0.631 | 0.801
20 | HCC-366 | – | – | – | 0.388 | 0.475 | 0.488 | 0.405 | 0.21 | 0.5 | 0.416 | 0.55 | 0.663 | 0.663 | 1.27 | 1.17 | 1.13 | 1.11
